The record followed here is patent publication US20240002379A1, “ASYMMETRIC CONJUGATE COMPOUNDS” (Pheon Therapeutics Ltd., priority 2016, published 2024).

Assay [1] deals with LIM1215 cell line (gastric). Briefly: MTT cytotoxicity assay, LIM1215. In kind it is cell-based. As to conditions: LIM1215; MTT assay, 72 hour incubation; read-out: Cytotoxicity LIM1215 (72 hours). The method in brief: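 Cells seeded at 1800/well in RPMI1640 + 10% FBS, adhered overnight, then exposed to compound 72 h at 37° C. Survival by MTT (500 μg/ml, 4 h), formazan in DMSO read at 540 nm, blank-corrected versus untreated wells; IC50 read from concentration–survival plot.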

In assay [2] the test system is fluorescently labelled DNA duplex 5′-[…]-3′. The assay is described as follows: FRET DNA melting, FIG. 17 top sequence. In kind it is binding. As to conditions: suggests interstrand cross-link formation. The text has this:
Further FRET DNA melting studies were undertaken on a number of molecules using three fluorescently labelled sequences. The sequences (FIG. 17) were designed to provide additional evidence that the series can form inter- and intrastrand cross-links. Inosines were inserted in place of traditional DNA bases in some cases to limit the number of binding sites available for the compounds to interact with. The short duplexes used in this FRET study are relatively unstable in the duplex form with a melting temperature below 30° C. so that, in the absence of ligand, a large part of the melting occurs below the starting temperature of the experiment. […] Increasing concentrations of 13 cause a greater amount of the melting transition to appear at the higher temperature (i.e. a greater number of the DNA molecules are cross-linked). […]
The reaction mixture was comprised of 4 μL of 250 mM phosphate buffer (final concentration of 50 mM), 4 μL flourophor and 4 μL quencher molecule of the appropriate oligonucleotide for a final concentration of 0.2 PM, 4 μL 5 M sodium chloride (final concentration of 1 M NaCl), and 4 μL of distilled H2O. […] This mixture was analysed without prior annealing.
Fluorescence melting profiles were measured using a Roche LightCycler using a total reaction volume of 20 μL. […] Annealing steps and melting steps were all recorded and changes in fluorescence were measured at 520 nm. […]

With `COc1cc2c(cc1OCCCC(=O)N1C[C@@H](CCl)c3c1cc(O)c1ccccc31)N=C[C@@H]1CCCCN1C2=O` [Compound 13, (S)-3-(4-((S)-1-(Chloromethyl)-5-hydroxy-1,2-dihydro-3H-benzo[e]indol-3-yl)-4-oxobutoxy)-2-methoxy-7,8,9,10-tetrahydrobenzo[e]-pyrido[1,2-a][1,4]diazepin-12(6aH)-one], in assay [1], the IC50 came to 0.68 nM.

As to `COc1cc2c(cc1OCc1cccc(CC(=O)N3C[C@@H](CCl)c4c3cc(O)c3ccccc43)c1)N=C[C@@H]1CCCCN1C2=O` [Compound 42, (S)-3-((3-(2-((S)-1-(Chloromethyl)-5-hydroxy-1,2-dihydro-3H-benzo[e]indol-3-yl)-2-oxoethyl)benzyl)oxy)-2-methoxy-7,8,9,10-tetrahydrobenzo[e]pyrido[1,2-a][1,4]diazepin-12(6aH)-one], the Tm value in assay [2] was approximately 80 °C.
